# Experimental data published in article PMC5614603, “Structural insights into substrate selectivity of ribosomal RNA methyltransferase RlmCD” (PLoS ONE, 2017).
# B1: m5U747 rRNA-h35 (18-mer, 23S rRNA helix 35) (structured_RNA)
# RNA: GGCACGUUGAAAAGUGCC
# modifications: m5U at position 8 (U747)
# Experiments:
# RlmCDs = biological target: T1, RlmCDs (Streptococcus pneumoniae, UniProt Q97R12); assay: in-vitro methyltransferase assay, 3H counting on RNA; type: biochemical; details: labelled compound (3H-SAM); 18-mer rRNA-h35, 3 mM MgCl2, pH 8.0, 37 °C, 2 h
# T1 construct: gene SP_1029; core region residues 1-454; 8xHis-SUMO tag cut by ULP1; E. coli BL21 (Gold)
# RlmCDs E443Q = RlmCDs E443Q (Streptococcus pneumoniae, UniProt Q97R12 1-454, E443Q); assay: crystal structure (2.85 A); SAH (SAM added); only the 5-bp stem modelled, loop not visible; Crystallization: 8 mg/ml protein, protein:SAM:RNA 1:2:1.2, 0.1 M ammonium sulfate, 0.01 M MgCl2, 0.05 M MES, 20% w/v PEG8000, pH 5.6; protein storage buffer 20; details: protein: recombinant; tags: N-terminal 8xHis-SUMO, cleaved with ULP1; hairpin
Molecule,"in-vitro methyltransferase assay, 3H counting on RNA (RlmCDs)",binding result (RlmCDs E443Q)
C[S+](CC[C@H](N)C(=O)O)C[C@H]1O[C@@H](n2cnc3c(N)ncnc32)[C@H](O)[C@@H]1O (some centres unmarked) [SAM],both full-length RlmCD and its shorter construct RlmCDs exhibit strong MTase activity,
B1,,binds
